From patent publication US4749701A, “Aminostyryl compound, leukotriene antagonistic composition containing the same as effective ingredients and method of antagonizing SRS by employing the same” (Mitsubishi Chemical Industries Limited, priority 1986, dated 1988)
Structures can show the parent of a compound that is named as a salt.

Assay: Acute toxicity test
Details: mouse, in vivo
Protocol: With 4 to 5 ddy-strain male mice of 6 weeks old as one group, the compound of the present invention was orally administered as a suspension in 1% tragacanth solution, and observation was conducted for 7 days and the number of dead mice was examined to obtain the results shown in Table 3.

Row | Structure (SMILES) | LD50 at 168 h (po) [mg/kg] | LD50 at 168 h (oral, suspension in 1% tragacanth, male ddy mice, 6 weeks old, observed for 7 days) [mg/kg]
1 | O=C(O)CCC(=O)Nc1cccc(/C=C/c2ccc3ccccc3n2)c1 [compound 32, 2-[trans-3-(3-carboxypropanamide)styryl]quinoline.sodium salt] | > 1000 | –
2 | O=C(O)C=CC(=O)Nc1cccc(C=Cc2ccc3ccccc3n2)c1 [compound 45] | – | > 1000
